From patent EP4714938A1, “HDAC1/2 SELECTIVE INHIBITOR AND USE THEREOF” (Wigen Biomedicine Technology (Shanghai) Co., Ltd., priority 2023, dated 2024)
Read-outs that look alike come from different tables or passages of the source.

Legend:
Experiment in all cases: HDAC enzyme inhibitory activity, FRET method
Assay type in all cases: biochemical
HDAC1 = HDAC1 (Homo sapiens, UniProt Q13547); details: read-out: IC50 HDAC1
Description: (§1) The compounds of the present disclosure were assayed for enzyme inhibitory activity against various subtypes of HDAC enzymes by the FRET method. The various subtypes of HDAC enzymes were obtained either through purification or direct purchase of assay kits.
(§2) The specific method was as follows: The enzyme was added to a 384-well plate, and a reaction buffer was added to the control well. Serially diluted DMSO sample solutions were added to the reaction wells, and the plate was incubated at room temperature for 15 min. Then a chromogenic agent was added to stop the reaction, and fluorescence was generated. The fluorescence intensity was measured using an EnVision multi-label microplate reader (excitation: 355 nm, emission: 460 nm). The endpoint value was read after the color development reached stability. The inhibition IC50 of the compounds was calculated using GraphPad Prism4 software relative to DMSO.

HDAC2 = HDAC2 (Homo sapiens, UniProt Q92769); details: read-out: IC50 HDAC2
Description: as §1, §2

HDAC3 = HDAC3 (Homo sapiens, UniProt O15379); details: read-out: IC50 HDAC3
HDAC3, sequence (O15379 whole entry, species assumed): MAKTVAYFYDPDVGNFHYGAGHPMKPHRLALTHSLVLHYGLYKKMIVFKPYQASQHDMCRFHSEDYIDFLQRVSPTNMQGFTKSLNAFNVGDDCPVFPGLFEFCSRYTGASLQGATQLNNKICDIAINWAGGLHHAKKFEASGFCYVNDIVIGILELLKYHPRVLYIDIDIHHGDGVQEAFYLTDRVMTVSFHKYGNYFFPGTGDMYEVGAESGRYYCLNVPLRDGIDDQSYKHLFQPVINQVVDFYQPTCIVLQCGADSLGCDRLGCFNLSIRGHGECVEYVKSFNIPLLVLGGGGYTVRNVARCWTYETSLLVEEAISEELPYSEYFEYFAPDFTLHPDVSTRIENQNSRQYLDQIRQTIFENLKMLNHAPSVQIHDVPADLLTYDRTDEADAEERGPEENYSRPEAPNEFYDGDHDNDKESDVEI
HDAC3, sequence (Q9Y618 395-489 partner limits assumed, species assumed): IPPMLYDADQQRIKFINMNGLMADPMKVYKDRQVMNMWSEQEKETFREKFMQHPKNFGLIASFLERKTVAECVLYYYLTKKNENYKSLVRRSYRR
Description: as §1, §2

HDAC2, sequence (Q92769 whole entry, species assumed): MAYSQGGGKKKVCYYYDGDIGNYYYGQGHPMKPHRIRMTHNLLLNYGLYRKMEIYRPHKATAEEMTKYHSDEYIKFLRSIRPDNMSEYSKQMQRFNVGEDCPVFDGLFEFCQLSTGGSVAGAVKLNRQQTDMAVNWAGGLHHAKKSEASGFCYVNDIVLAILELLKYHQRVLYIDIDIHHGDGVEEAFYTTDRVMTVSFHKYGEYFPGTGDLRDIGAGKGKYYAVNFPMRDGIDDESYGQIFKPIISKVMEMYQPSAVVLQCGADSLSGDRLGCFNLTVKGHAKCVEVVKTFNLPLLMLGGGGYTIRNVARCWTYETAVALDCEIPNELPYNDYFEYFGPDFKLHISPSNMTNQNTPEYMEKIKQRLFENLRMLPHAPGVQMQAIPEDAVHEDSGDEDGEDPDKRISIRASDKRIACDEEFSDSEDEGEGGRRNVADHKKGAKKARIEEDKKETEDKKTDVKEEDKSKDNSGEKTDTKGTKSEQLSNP
HDAC1, sequence (Q13547 whole entry, species assumed): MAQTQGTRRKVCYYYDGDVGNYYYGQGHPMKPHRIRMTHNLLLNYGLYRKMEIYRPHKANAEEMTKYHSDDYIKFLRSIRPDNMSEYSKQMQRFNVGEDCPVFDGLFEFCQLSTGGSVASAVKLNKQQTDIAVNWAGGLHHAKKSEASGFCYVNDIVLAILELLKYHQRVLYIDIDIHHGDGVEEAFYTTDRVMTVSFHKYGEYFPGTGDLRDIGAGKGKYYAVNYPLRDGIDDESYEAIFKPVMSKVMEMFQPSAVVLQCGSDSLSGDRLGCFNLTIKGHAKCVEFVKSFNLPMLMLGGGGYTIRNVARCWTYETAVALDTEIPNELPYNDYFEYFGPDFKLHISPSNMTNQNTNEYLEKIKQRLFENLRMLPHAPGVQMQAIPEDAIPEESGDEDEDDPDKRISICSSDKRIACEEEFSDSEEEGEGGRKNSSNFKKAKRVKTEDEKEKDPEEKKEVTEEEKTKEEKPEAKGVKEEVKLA

CS(C)(=O)=Nc1ccc(C(=O)Nc2cc(-c3ccccc3)ccc2N)cc1 [Compound 2]
IC50 (HDAC1; Table 4): < 500 nM | IC50 (HDAC2; Table 4): < 500 nM | IC50 (HDAC3; Table 4): > 5000 nM

CS(C)(=O)=Nc1ccc(C(=O)Nc2cc(-c3ccc(C#N)cc3)ccc2N)cc1 [Compound 4]
IC50 (HDAC1; Table 4): < 500 nM | IC50 (HDAC2; Table 4): < 500 nM | IC50 (HDAC3; Table 4): > 5000 nM

COC(=O)c1ccc(-c2ccc(N)c(NC(=O)c3ccc(N=S(C)(C)=O)cc3)c2)cc1 [Compound 5]
IC50 (HDAC1; Table 4): < 500 nM | IC50 (HDAC2; Table 4): 500 to 5000 nM | IC50 (HDAC3; Table 4): > 5000 nM

CP(C)(=O)c1ccc(-c2ccc(N)c(NC(=O)c3ccc(N=S(C)(C)=O)cc3)c2)cc1 [Compound 6]
IC50 (HDAC1; Table 4): 500 to 5000 nM | IC50 (HDAC2; Table 4): 500 to 5000 nM | IC50 (HDAC3; Table 4): > 5000 nM

CS(C)(=O)=Nc1ccc(C(=O)Nc2cc(-c3ccc(C(F)(F)F)cc3)ccc2N)cc1 [Compound 7]
IC50 (HDAC1; Table 4): < 500 nM | IC50 (HDAC2; Table 4): < 500 nM | IC50 (HDAC3; Table 4): > 5000 nM

CS(C)(=O)=Nc1ccc(C(=O)Nc2cc(-c3ccc(C4CC4)cc3)ccc2N)cc1 [Compound 8]
IC50 (HDAC1; Table 4): 500 to 5000 nM | IC50 (HDAC2; Table 4): 500 to 5000 nM | IC50 (HDAC3; Table 4): > 5000 nM

COc1ccc(-c2ccc(N)c(NC(=O)c3ccc(N=S(C)(C)=O)cc3)c2)cc1 [Compound 9]
IC50 (HDAC1; Table 4): < 500 nM | IC50 (HDAC2; Table 4): < 500 nM | IC50 (HDAC3; Table 4): > 5000 nM

CS(C)(=O)=Nc1ccc(C(=O)Nc2cc(-c3ccc(F)cc3F)ccc2N)cc1 [Compound 10]
IC50 (HDAC1; Table 4): < 500 nM | IC50 (HDAC2; Table 4): < 500 nM | IC50 (HDAC3; Table 4): > 5000 nM

CNC(=O)c1ccc(-c2ccc(N)c(NC(=O)c3ccc(N=S(C)(C)=O)cc3)c2)cc1 [Compound 11]
IC50 (HDAC1; Table 4): < 500 nM | IC50 (HDAC2; Table 4): < 500 nM | IC50 (HDAC3; Table 4): > 5000 nM

[2H]c1ccc(-c2ccc(N)c(NC(=O)c3ccc(N=S(C)(C)=O)cc3)c2)cc1 [Compound 12]
IC50 (HDAC1; Table 4): < 500 nM | IC50 (HDAC2; Table 4): < 500 nM | IC50 (HDAC3; Table 4): > 5000 nM

CS(C)(=O)=Nc1ccc(C(=O)Nc2cc(-c3ccncc3)ccc2N)cc1 [Compound 13]
IC50 (HDAC1; Table 4): < 500 nM | IC50 (HDAC2; Table 4): < 500 nM | IC50 (HDAC3; Table 4): > 5000 nM

CS(C)(=O)=Nc1ccc(C(=O)Nc2cc(-c3ccccn3)ccc2N)cc1 [Compound 14]
IC50 (HDAC1; Table 4): < 500 nM | IC50 (HDAC2; Table 4): < 500 nM | IC50 (HDAC3; Table 4): > 5000 nM

CS(C)(=O)=Nc1ccc(C(=O)Nc2cc(-c3cccnc3)ccc2N)cc1 [Compound 15]
IC50 (HDAC1; Table 4): < 500 nM | IC50 (HDAC2; Table 4): < 500 nM | IC50 (HDAC3; Table 4): > 5000 nM

CS(C)(=O)=Nc1ccc(C(=O)Nc2cc(-c3ccncn3)ccc2N)cc1 [Compound 16]
IC50 (HDAC1; Table 4): < 500 nM | IC50 (HDAC2; Table 4): < 500 nM | IC50 (HDAC3; Table 4): > 5000 nM

CS(C)(=O)=Nc1ccc(C(=O)Nc2cc(-c3cncnc3)ccc2N)cc1 [Compound 17]
IC50 (HDAC1; Table 4): < 500 nM | IC50 (HDAC2; Table 4): < 500 nM | IC50 (HDAC3; Table 4): > 5000 nM

CS(C)(=O)=Nc1ccc(C(=O)Nc2cc(-c3ncccn3)ccc2N)cc1 [Compound 18]
IC50 (HDAC1; Table 4): < 500 nM | IC50 (HDAC2; Table 4): < 500 nM | IC50 (HDAC3; Table 4): > 5000 nM

CS(C)(=O)=Nc1ccc(C(=O)Nc2cc(-c3ccc(F)cn3)ccc2N)cc1 [Compound 19]
IC50 (HDAC1; Table 4): < 500 nM | IC50 (HDAC2; Table 4): < 500 nM | IC50 (HDAC3; Table 4): > 5000 nM

CS(C)(=O)=Nc1ccc(C(=O)Nc2cc(-c3ccco3)ccc2N)cc1 [Compound 20]
IC50 (HDAC1; Table 4): < 500 nM | IC50 (HDAC2; Table 4): < 500 nM | IC50 (HDAC3; Table 4): > 5000 nM

CS(C)(=O)=Nc1ccc(C(=O)Nc2cc(-c3ccc(F)cc3)ccc2O)cc1 [Compound 41]
IC50 (HDAC1; Table 4): < 500 nM | IC50 (HDAC2; Table 4): 500 to 5000 nM | IC50 (HDAC3; Table 4): > 5000 nM

CS(C)(=O)=Nc1ccc(C(=O)Nc2cc(-c3ccc(F)s3)ccc2O)cc1 [Compound 42]
IC50 (HDAC1; Table 4): < 500 nM | IC50 (HDAC2; Table 4): < 500 nM | IC50 (HDAC3; Table 4): > 5000 nM

CS(C)(=O)=Nc1ccc(C(=O)Nc2cc(-c3ccc(F)cc3)c(F)cc2N)cc1 [Compound 43]
IC50 (HDAC1; Table 4): < 500 nM | IC50 (HDAC2; Table 4): < 500 nM | IC50 (HDAC3; Table 4): > 5000 nM

CS(C)(=O)=Nc1ccc(C(=O)Nc2cc(-c3cccs3)c(F)cc2N)cc1 [Compound 44]
IC50 (HDAC1; Table 4): < 500 nM | IC50 (HDAC2; Table 4): < 500 nM | IC50 (HDAC3; Table 4): > 5000 nM

CS(C)(=O)=NC1CCC(C(=O)Nc2cc(-c3ccc(F)cc3)ccc2N)CC1 (stereo not drawn) [Compound 45]
IC50 (HDAC1; Table 4): < 500 nM | IC50 (HDAC2; Table 4): < 500 nM | IC50 (HDAC3; Table 4): > 5000 nM

CS(C)(=O)=NC1CCC(C(=O)Nc2cc(-c3ccc(F)s3)ccc2N)CC1 (stereo not drawn) [Compound 47]
IC50 (HDAC1; Table 4): < 500 nM | IC50 (HDAC2; Table 4): < 500 nM | IC50 (HDAC3; Table 4): > 5000 nM

CS(C)(=O)=NC1CCC(C(=O)Nc2cc(-c3ccc(Cl)s3)ccc2N)CC1 (stereo not drawn) [Compound 48]
IC50 (HDAC1; Table 4): < 500 nM | IC50 (HDAC2; Table 4): < 500 nM | IC50 (HDAC3; Table 4): > 5000 nM

Nc1ccc(-c2ccc(F)cc2)cc1NC(=O)c1ccc(N=S2(=O)CCC2)cc1 [Compound 53]
IC50 (HDAC1; Table 5): < 30 nM | IC50 (HDAC2; Table 5): 30 to 300 nM | IC50 (HDAC3; Table 5): > 3000 nM

Nc1ccc(-c2ccc(F)cc2)cc1NC(=O)c1ccc(N=S2(=O)CC3(CCC3)C2)cc1 [Compound 54]
IC50 (HDAC1; Table 5): < 30 nM | IC50 (HDAC2; Table 5): 30 to 300 nM | IC50 (HDAC3; Table 5): > 3000 nM

Nc1ccc(-c2ccc(F)cc2)cc1NC(=O)c1ccc(N=S2(=O)CC3(CNC3)C2)cc1 [Compound 55]
IC50 (HDAC1; Table 5): < 30 nM | IC50 (HDAC2; Table 5): 30 to 300 nM | IC50 (HDAC3; Table 5): > 3000 nM

CN1CC2(C1)CS(=O)(=Nc1ccc(C(=O)Nc3cc(-c4ccc(F)cc4)ccc3N)cc1)C2 [Compound 56]
IC50 (HDAC1; Table 5): < 30 nM | IC50 (HDAC2; Table 5): 30 to 300 nM | IC50 (HDAC3; Table 5): > 3000 nM

Nc1ccc(-c2ccc(F)cc2)cc1NC(=O)c1ccc(N=S2(=O)CCCCC2)cc1 [Compound 58]
IC50 (HDAC1; Table 5): < 30 nM | IC50 (HDAC2; Table 5): 30 to 300 nM | IC50 (HDAC3; Table 5): > 3000 nM

CCS(=O)(CC)=Nc1ccc(C(=O)Nc2cc(-c3ccc(F)cc3)ccc2N)cc1 [Compound 59]
IC50 (HDAC1; Table 5): < 30 nM | IC50 (HDAC2; Table 5): 30 to 300 nM | IC50 (HDAC3; Table 5): > 3000 nM

Nc1ccc(-c2ccc(F)cc2)cc1NC(=O)c1ccc(N=S2(=O)CCOCC2)cc1 [Compound 60]
IC50 (HDAC1; Table 5): < 30 nM | IC50 (HDAC2; Table 5): 30 to 300 nM | IC50 (HDAC3; Table 5): > 3000 nM

Nc1ccc(-c2ccc(F)cc2)cc1NC(=O)c1ccc(N=S2(=O)CCC(F)(F)CC2)cc1 [Compound 63]
IC50 (HDAC1; Table 5): < 30 nM | IC50 (HDAC2; Table 5): 30 to 300 nM | IC50 (HDAC3; Table 5): > 3000 nM

Nc1ccc(-c2ccc(F)cc2)cc1NC(=O)c1ccc(N=S2(=O)CCC(F)(F)C2)cc1 (stereo not drawn) [Compound 65]
IC50 (HDAC1; Table 5): < 30 nM | IC50 (HDAC2; Table 5): 30 to 300 nM | IC50 (HDAC3; Table 5): > 3000 nM

[2H]C([2H])([2H])N1CCS(=O)(=Nc2ccc(C(=O)Nc3cc(-c4ccc(F)cc4)ccc3N)cc2)CC1 [Compound 68]
IC50 (HDAC1; Table 4): < 500 nM | IC50 (HDAC1; Table 5): < 30 nM | IC50 (HDAC2; Table 4): < 500 nM | IC50 (HDAC2; Table 5): 30 to 300 nM | IC50 (HDAC3; Table 4): > 5000 nM | IC50 (HDAC3; Table 5): > 3000 nM

CCN1CCS(=O)(=Nc2ccc(C(=O)Nc3cc(-c4ccc(F)cc4)ccc3N)cc2)CC1 [Compound 69]
IC50 (HDAC1; Table 5): < 30 nM | IC50 (HDAC2; Table 5): 30 to 300 nM | IC50 (HDAC3; Table 5): > 3000 nM

Nc1ccc(-c2ccc(F)cc2)cc1NC(=O)c1ccc(N=S2(=O)CCN(CC3CC3)CC2)cc1 [Compound 71]
IC50 (HDAC1; Table 4): < 500 nM | IC50 (HDAC2; Table 4): < 500 nM | IC50 (HDAC3; Table 4): > 5000 nM

CN1CC2(CCS(=O)(=Nc3ccc(C(=O)Nc4cc(-c5ccc(F)cc5)ccc4N)cc3)CC2)C1 [Compound 72]
IC50 (HDAC1; Table 4): < 500 nM | IC50 (HDAC1; Table 5): < 30 nM | IC50 (HDAC2; Table 4): < 500 nM | IC50 (HDAC2; Table 5): 30 to 300 nM | IC50 (HDAC3; Table 4): > 5000 nM | IC50 (HDAC3; Table 5): > 3000 nM

Cc1nn(C)cc1CN1CCS(=O)(=Nc2ccc(C(=O)Nc3cc(-c4ccc(F)cc4)ccc3N)cc2)CC1 [Compound 73]
IC50 (HDAC1; Table 4): < 500 nM | IC50 (HDAC1; Table 5): < 30 nM | IC50 (HDAC2; Table 4): < 500 nM | IC50 (HDAC2; Table 5): 30 to 300 nM | IC50 (HDAC3; Table 4): > 5000 nM | IC50 (HDAC3; Table 5): > 3000 nM

CN1CC2(C1)CS(=O)(=Nc1ccc(C(=O)Nc3cc(-c4cccs4)ccc3N)cc1)C2 [Compound 79]
IC50 (HDAC1; Table 4): < 500 nM | IC50 (HDAC2; Table 4): < 500 nM | IC50 (HDAC3; Table 4): > 5000 nM

Nc1ccc(-c2cccs2)cc1NC(=O)c1ccc(N=S2(=O)CCCC2)cc1 [Compound 80]
IC50 (HDAC1; Table 4): < 500 nM | IC50 (HDAC2; Table 4): < 500 nM | IC50 (HDAC3; Table 4): > 5000 nM

CN1CCS(=O)(=Nc2ccc(C(=O)Nc3cc(-c4cccs4)ccc3N)cc2)CC1 [Compound 89]
IC50 (HDAC1; Table 4): < 500 nM | IC50 (HDAC2; Table 4): < 500 nM | IC50 (HDAC3; Table 4): > 5000 nM

[2H]C([2H])([2H])N1CCS(=O)(=Nc2ccc(C(=O)Nc3cc(-c4cccs4)ccc3N)cc2)CC1 [Compound 90]
IC50 (HDAC1; Table 4): < 500 nM | IC50 (HDAC2; Table 4): < 500 nM | IC50 (HDAC3; Table 4): > 5000 nM

CN1CC2(CCS(=O)(=Nc3ccc(C(=O)Nc4cc(-c5cccs5)ccc4N)cc3)CC2)C1 [Compound 91]
IC50 (HDAC1; Table 4): < 500 nM | IC50 (HDAC2; Table 4): < 500 nM | IC50 (HDAC3; Table 4): > 5000 nM
